Measured values from patent US6503534B1, “Pharmaceutical compositions for prolonged peptide release and preparation method” (Societe de Conseils de Recherches et d'Applications …, priority 1998, dated 2003).

Assay: Measurement of the specific surface area (B.E.T method)
Format: physicochemical
Conditions: lanreotide acetate recovered after flash freezing and lyophilization
Protocol: For all the following examples, the specific surface area of the peptide salt was determined by the so-called B.E.T method (absorption of a nitrogen monolayer on the active substance), a method well known to a person skilled in the art.

SMILES | Specific surface area obtained
CC(C)[C@@H]1NC(=O)[C@H](CCCCN)NC(=O)[C@@H](Cc2c[nH]c3ccccc23)NC(=O)[C@H](Cc2ccc(O)cc2)NC(=O)[C@@H](NC(=O)[C@H](N)Cc2ccc3ccccc3c2)CSSC[C@@H](C(=O)N[C@H](C(N)=O)[C@@H](C)O)NC1=O [Example 4, lanreotide acetate] | 43 m^2/g
CC(C)[C@@H]1NC(=O)[C@H](CCCCN)NC(=O)[C@@H](Cc2c[nH]c3ccccc23)NC(=O)[C@H](Cc2ccc(O)cc2)NC(=O)[C@@H](NC(=O)[C@H](N)Cc2ccc3ccccc3c2)CSSC[C@@H](C(=O)N[C@H](C(N)=O)[C@@H](C)O)NC1=O [Example 3, lanreotide acetate] | 36 m^2/g
